Experimental data: patent publication US20230277669A1, “USES OF UROLITHINS” (Amazentis SA, priority 2022, published 2023)

Test system: CD3^+ T cells
Test: qPCR analysis of in vitro activated CD3+ cells
Type: cell-based
Experimental: (FIG. 4A) Scheme of CD3+ T-cell activation and analysis for various timepoints in order to investigate mitophagy induction in vitro. (FIG. 4B) Analysis of mitochondrial membrane potential within CD8+ T cells, with TMRM^lo representing cells with low mitochondrial membrane potential. Analysis was performed six hours after stimulation with aCD/aCD28 stimulation beads at the presence of the indicated treatments. N=4 per group, *p < 0.05 by Mann Whitney U test. One of two independent experiments are shown. (FIG. 4C) Representative flow histogram and quantification of lysosome formation in CD8+ cells six hours after in vitro stimulation. MFI shown relative to DMSO controls, n=4. Data are normalised mean ± SD, statistical analysis by two-sided t-test. One out of two independent experiments are shown. (FIG. 4D) Mitotracker Red staining of in vitro stimulated CD8+ cells after 24 hours of Urolithin A (UA25 n=6; UA50 n=6) or vehicle control treatment (DMSO: n=4). […] (FIG. 4H) CD8+ cells from Pink1^-/- mice display deficient mitophagy upon UA treatment in vitro: Lysosome formation in CD8+ of Pink1^-/- mice as assessed by Lysotracker staining 6h post stimulation at the presence of UA or DMSO (n=4). […] Quantification of TCF1^hi cells among CD8. (FIG. 4N) Quantification of PD1^hi cells among CD8. (FIG. 4O) Quantification of and Tim3^hi cells among CD8. […]

O=c1oc2cc(O)ccc2c2ccc(O)cc12 [Urolithin A]
autophagy genes and Pink1 (qPCR) (24 h after activation): significant upregulation | transcription of Wnt target genes (qPCR) (24 h after stimulation): increased transcription
